For experiment [1], the system named is sweet sensitive panelists. Put plainly: Forced choice test of sweetness enhancers with sweetness rating (Example 2). It is filed as in vivo. The following applies: scale 0-10. How it is done:
A forced choice test of sweetness enhancers in water, 2% sucrose and 7% sucrose
All sweetness enhancer samples were evaluated at the same concentration, which was selected close to the threshold of each sweetness enhancer, in 0% sucrose (water), 2% sucrose, and 7% sucrose.
The test samples were evaluated by a sensory panel of 10 sweet sensitive panelists. Samples were presented in 3 replicates to each panelist to give n=30 evaluations for each panel. The sensory evaluation was conducted using a forced choice method. Samples were presented blind, unidentifiable by panelists. Three runs at different sucrose concentrations were performed (0% sucrose (water/negative control), 2% sucrose, 7% sucrose). In each run, the sweetness enhancer sample was compared by panelists to a corresponding sample without sweetness enhancer at the same sucrose concentration. Panelists were instructed that they had to choose one of the samples as sweeter. The data was analyzed using beta-binomial analysis. […]
Alternatively, 0% (water), 0.5% and/or 1% and/or 1.5% sucrose were used for samples/corresponding controls and evaluated accordingly.
As a further control, the sweetness enhancer in water was compared to 0.5% and/or 1% and/or 1.5% sucrose. The result determined the sweetness intensity of the sweetness enhancer compound as such, without the sweetness due to the enhancement of sucrose.

For a further experiment, the system named is panelists. Description: Fractionated swingle extract: comparative sensory evaluation in 0% and 2% sucrose. Type of experiment: in vivo. The following applies: from fractions at 60 ppm in 2% sucrose and LC-MS analysis. As to the method: Swingle extract, comprising 80% total mogroside content by weight, was fractionated by reversed phase (C-18) flash chromatography. Compounds were eluted using a mixture of methanol (MeOH) in water starting at 30% MeOH (264 ml) followed by a linear gradient of 30-80% MeOH (1320 ml) then finally the column was flushed with 80% MeOH (264 ml). The solvents were introduced at a flow rate of 30 ml/min throughout the separation procedure. Eluted compounds were visualized with a UV detector set at 210 nm and a Corona light scattering detector. Collected fractions were pooled according to the table below then freeze dried to powders.
The powders corresponding to various pooled fractions as given in the table below were dissolved in a concentration of 60 ppm in either 0% or 2% sucrose. The sample in 0% sucrose when determined to be sweet was in addition to the 0% sucrose control also compared to a 2% sucrose control and to the other fractions to estimate the degree of sweetness.

In experiment [2] the test system is sweet sensitive panelists. Description: Ranking test, near threshold sweetness isointensity of enhancer in water (Example 3b). It is filed as in vivo. As to the method: The sensory evaluation was conducted using a ranking method. Samples at ambient temperature were randomly presented in 15 ml blind aliquots (unidentifiable by panelists). […] After tasting each sample, the mouth was rinsed thoroughly with water at ambient temperature prior to tasting the next sample. […] They were asked to rank the samples from low to high with respect to perceived sweet taste.

The subject of the next experiment is sucrose sweetness. Conditions: at its sweetness detection threshold; Kroeze et al., Chem. Senses 2000; cited from earlier work.

In the case of `OC[C@H]1O[C@@](CO)(O[C@H]2O[C@H](CO)[C@@H](O)[C@H](O)[C@H]2O)[C@@H](O)[C@@H]1O` [sucrose, α-D-glucopyranosyl-(1→2)-β-D-fructofuranose], the results for the “rating 1% sucrose” value in experiment [1] (rating 2 of Example 12B) and in experiment [1] (rating 2 of Example 12C) were 0.81 ± 0.08 and 0.72 ± 0.06, respectively.

Regarding `C[C@H](CC[C@@H](O[C@@H]1O[C@H](CO[C@@H]2O[C@H](CO)[C@@H](O)[C@H](O)[C@H]2O)[C@@H](O)[C@H](O)[C@H]1O[C@@H]1O[C@H](CO)[C@@H](O)[C@H](O)[C@H]1O)C(C)(C)O)[C@H]1CC[C@@]2(C)[C@@H]3CC=C4[C@@H](CC[C@H](O[C@@H]5O[C@H](CO[C@@H]6O[C@H](CO)[C@@H](O)[C@H](O)[C@H]6O)[C@@H](O)[C@H](O)[C@H]5O)C4(C)C)[C@]3(C)[C@H](O)C[C@]12C` [mogroside V], in the experiment with panelists, the “contribution to the observed enhancement effect of swingle extract” value was “mainly due to mogroside V”.

As to `COc1ccc(CCC(=O)c2c(O)cc(O[C@@H]3O[C@H](CO)[C@@H](O)[C@H](O)[C@H]3O[C@@H]3O[C@@H](C)[C@H](O)[C@@H](O)[C@H]3O)cc2O)cc1O` [NDHC, Neohesperidin dihydrochalcone], in experiment [2] (2 ppm in water), the “isointensity to sucrose solution” value is recorded as 0.5 % sucrose. For the same compound, the NDHC sample sweetness entry in experiment [2] (2 ppm in water vs 0.5% sucrose) is recorded as “isosweet”; in experiment [2] (2 ppm in water vs 1% sucrose) it was “less sweet”. For the same compound, the “enhancement of sucrose sweetness” value in the experiment with sucrose sweetness is “does not enhance sucrose sweetness”.

These data come from US20210015134A1, “CONSUMABLES” (Givaudan S.A., priority 2006, published 2021).
